For 24 compounds, MIC, IC50 and selectivity ratio results are on record in ChEMBL document CHEMBL3870347, “Antimycobacterial activity of novel hydrazide-hydrazone derivatives with 2H-chromene and coumarin scaffold” (Bioorg Med Chem Lett, 2017).

Data set [1] relates to Mycobacterium tuberculosis. The experiment in a line: Antimycobacterial activity against Mycobacterium tuberculosis H37Rv after 45 days. The class given is functional.
Data set [2] can be described thus: Cytotoxicity against HEK293T cells assessed as decrease in cell viability after 72 hrs by MTT assay. The class given is toxicity, cell-based, HEK-293T. Particulars: human. In general terms: Formazan colour is commonly taken as a measure of viable cells.
Data set [3] in a line: Selectivity index, ratio of IC50 for HEK293T cells to MIC for Mycobacterium tuberculosis H37Rv. The class given is toxicity, cell-based, HEK-293T. Particulars: human, read-out: Selectivity Index.

Values after ≈ are worked out from the molar mass of the structure shown. Structures can show the parent of a compound that is named as a salt. Some results are limits rather than exact numbers.

As usually defined, the MIC is the lowest concentration that inhibits growth of the organism. A low value points to inhibition by little substance. What is called IC50 is the concentration at which inhibition is half-maximal. Consider `O=C(N/N=C/C1=Cc2ccccc2OC1c1ccccc1)c1ccc(Cl)cc1` (centres undefined), for which the minimal inhibitory concentration (MIC) in data set [1] was > 5.14 µM. In addition, the IC50 at 72 h in data set [2] was found to be 13.2 µM.
In data set [1], `O=C(N/N=C/c1c(Cl)c2ccccc2oc1=O)c1ccncc1` showed an MIC of 6.1 µM (≈ 2 µg/mL). The IC50 at 72 h in data set [2] was determined as 12.6 µM.
On to `NNC(=O)c1ccncc1` [ISONIAZID], for which the minimal inhibitory concentration (MIC) in data set [1] is 1.45 µM (≈ 0.199 µg/mL).
For `COc1ccc(C(=O)N/N=C/C2=Cc3ccccc3OC2c2ccccc2)cc1` (centres undefined), in data set [3], the selectivity ratio was determined as 697. In addition, in data set [1], the MIC stood at 0.13 µM (≈ 0.05 µg/mL). The IC50 at 72 h in data set [2] was 90.7 µM.
For the compound `Cc1nnsc1C(=O)N/N=C/c1c(Cl)c2ccccc2oc1=O`, in data set [3], the selectivity ratio turned out to be 45. The compound also came in with an MIC in data set [1] of 0.67 µM (≈ 0.234 µg/mL). In addition, the IC50 at 72 h in data set [2] was 30.2 µM.
In the case of `Cc1nnsc1C(=O)N/N=C/C1=Cc2ccccc2OC1c1ccccc1` (centres undefined), in data set [3], the selectivity ratio stood at 56.9. The same compound yielded an MIC in data set [1] of 0.53 µM (≈ 0.2 µg/mL). Also, the IC50 at 72 h in data set [2] is 30.2 µM.
Take `CC1Oc2ccccc2C=C1/C=N/NC(=O)c1ccc(Cl)cc1` (centres undefined): the minimal inhibitory concentration (MIC) in data set [1] is > 6.12 µM.
In turn, `COc1ccc(C(=O)N/N=C/C2=Cc3ccccc3OC2)cc1` came in with an MIC in data set [1] of 6.48 µM (≈ 2 µg/mL). In data set [2], the IC50 at 72 h was determined as 36 µM.
In the case of `COc1ccc(C(=O)N/N=C/C2=Cc3ccccc3OC2C)cc1` (centres undefined), 6.2 µM (≈ 2 µg/mL) was the least that counted as inhibitory in data set [1] (MIC).
Regarding `O=C(N/N=C/C1=Cc2ccccc2OC1)c1ccco1`, in data set [3], the selectivity ratio worked out at 63.9. In data set [1], this compound returned an MIC of 0.74 µM (≈ 0.199 µg/mL). Besides, in data set [2], the IC50 at 72 h was found to be 47.3 µM.
In turn, `O=C(N/N=C/c1c(Cl)c2ccccc2oc1=O)c1ccc(O)cc1` displayed an MIC in data set [1] of 5.83 µM (≈ 2 µg/mL). In data set [2], the IC50 at 72 h was determined as 33.1 µM.
With `CC1Oc2ccccc2C=C1/C=N/NC(=O)c1ccccc1` (centres undefined), the lowest concentration to inhibit growth in data set [1] (MIC) was 6.84 µM (≈ 2 µg/mL). The IC50 at 72 h in data set [2] worked out at 23.3 µM.
`CC[C@@H](CO)NCCN[C@@H](CC)CO` [ETHAMBUTOL HYDROCHLORIDE] returned an MIC in data set [1] of 7.64 µM.
The compound `O=C(N/N=C/C1=Cc2ccccc2OC1c1ccccc1)c1ccc(F)cc1` (centres undefined) had an MIC in data set [1] of 1.34 µM (≈ 0.499 µg/mL). In addition, the IC50 at 72 h in data set [2] is 30.9 µM.
`CC1Oc2ccccc2C=C1/C=N/NC(=O)c1cccs1` (centres undefined): the MIC in data set [1] is > 6.7 µM.
For `CC1Oc2ccccc2C=C1/C=N/NC(=O)c1ccc(O)cc1` (centres undefined), the selectivity ratio in data set [3] was found to be 76.2. The same compound yielded a minimum inhibitory concentration (MIC) in data set [1] of 0.64 µM (≈ 0.197 µg/mL). Moreover, the IC50 at 72 h in data set [2] worked out at 48.8 µM.
For the compound `O=C(N/N=C/C1=Cc2ccccc2OC1)c1ccc(Cl)cc1`, in data set [1], 6.39 µM (≈ 2 µg/mL) was the least that counted as inhibitory (MIC).
Consider `CC1Oc2ccccc2C=C1/C=N/NC(=O)c1ccncc1` (centres undefined), for which the selectivity ratio in data set [3] was found to be 449. In data set [1], the MIC is 0.17 µM (≈ 0.0499 µg/mL). Moreover, the concentration for half-maximal inhibition (IC50) at 72 h in data set [2] is 76.3 µM.
As for `O=C(N/N=C/C1=Cc2ccccc2OC1c1ccccc1)c1ccco1` (centres undefined), in data set [3], the selectivity ratio was found to be 79.4. The compound also came in with an MIC in data set [1] of 0.15 µM (≈ 0.0517 µg/mL). In data set [2], the IC50 at 72 h is 11.9 µM.
In the case of `CC1Oc2ccccc2C=C1/C=N/NC(=O)c1ccco1` (centres undefined), the selectivity ratio in data set [3] came to 118. Moreover, the MIC in data set [1] turned out to be 0.18 µM (≈ 0.0508 µg/mL). The IC50 at 72 h in data set [2] stood at 21.2 µM.
`O=C(N/N=C/c1c(Cl)c2ccccc2oc1=O)c1ccc(F)cc1`: in data set [1], the lowest concentration to inhibit growth (MIC) was 1.45 µM (≈ 0.5 µg/mL). Besides, the half-inhibitory concentration (IC50) at 72 h in data set [2] was 26.2 µM.
Take `O=C(N/N=C/C1=Cc2ccccc2OC1c1ccccc1)c1cccs1` (centres undefined): in data set [1], the minimal inhibitory concentration (MIC) was > 5.54 µM.
`O=C(N/N=C/C1=Cc2ccccc2OC1)c1cccs1` yielded an MIC in data set [1] of 7.03 µM (≈ 2 µg/mL). Moreover, the IC50 at 72 h in data set [2] was determined as 22.1 µM.
`O=C(N/N=C/c1c(Cl)c2ccccc2oc1=O)c1ccccc1` displayed a minimum inhibitory concentration (MIC) in data set [1] of 6.12 µM (≈ 2 µg/mL). The IC50 at 72 h in data set [2] was found to be 28.6 µM.
